“Also recorded” adds a separate entry of the source. Where two headings read alike, the source gives them in different places. Each block holds one compound with its values, some of them ahead of it.
Legend:
[1] = system: MDA-MB-231 breast cancer cells; experiment: MTT colorimetric cell viability assay, MDA-MB-231 cells; format: cell-based
Protocol: (§1) Other cell lines used in this study include, MDA-MB-231 (estrogen receptor negative, ER−ve), MCF-7 (ER+ve) were also purchased from ATCC and were cultured as previously described.^44, 45 LTLC and LTLT-Ca were kindly provided by Dr. Angela Brodie, University of Maryland, Baltimore, and details of their phenotypes and culturing conditions are as previously reported.^46, 47 MCF-7TAM and MCF-7HoxB-7 were provided by Dr. Sara Sukumar of Johns Hopkins University, Baltimore, and details of their phenotypes and culturing conditions are as previously reported.^48 Except for MCF-7 breast cancer cell all other breast cancer cells used in this study are insensitive to endocrine therapeutic agents and to most anti-cancer agents.
(§2) The MTT (3-[4,5-dimethylthiazol-2-yl]-2,5-diphenyltetrazolium bromide) assay was used to measure the cell viability. MDA-MB-231 cells (1.0×10^3 cells/ml) were seeded into 96 well plates. Cells were treated with the compound on day 2 at different concentrations. On the 5th day, the medium was removed and […] of a 0.5 mg/ml MTT solution was added to each well. The plates were incubated at 37° C. for 2 hours and 200 μL of DMSO was added. The yellow tetrazolium salt (MTT) is reduced to a purple formazan product by the mitochondrial dehydrogenase from living cells. The product is then detected by spectrophotometry at 560 nm.
as §2, with “viability. PC-3 cells or” for “viability.”, “compounds” for “compound”

[2] = system: PC-3 prostate cancer cells; experiment: MTT cell growth inhibition assay, PC-3 cells; format: cell-based, human
Protocol: PC-3 (androgen receptor negative, AR−ve) cells were obtained from American Type Culture Collection (ATCC, Rockville, Md., USA). Cells were maintained in RPMI 1640 medium (Gibco, Invitrogen, Carlsbad, Calif., USA) supplemented with 10% fetal bovine serum (Atlanta Biologicals, Lawrenceville, Ga., USA) and 1% penicillin/streptomycin. Cells were grown as a monolayer in T75 tissue culture flasks in a humidified incubator (5% CO2, 95% air) at 37° C.
(§3) PC-3 cells were seeded in 24 well plates (Corning Costar) at a density of 2×10^4 cells per well per 1 mL of medium. Cells were allowed to adhere to the plate for 24 hours and then treated with different concentrations of ATRA, HDIs or mutual prodrugs dissolved in 10% DMSO, 90% ethanol. Cells were treated for five days with renewal of prodrug and media on day 3. On the fifth day, medium was renewed and 100 μL of MTT (3-(4,5-dimethylthiazol-2-yl)-2,5-diphenyl-2H-tetrazolium bromide from Sigma) solution (0.5 mg MTT/mL of media) was added to the medium such that the ratio of MTT:medium was 1:10. The cells were incubated with MTT for 2 hours. The medium was then aspirated and 500 μL of DMSO was added to solubilize the violet MTT-formazan product. The absorbance at 560 nm was measured by spectrophotometry (Victor 1420 multilabel counted, Wallac). For each concentration of agent or mutual prodrugs there were triplicate wells in each independent experiment. GI50 values were calculated by nonlinear regression analysis using GraphPad Prism software.
as §2, with “viability. PC-3 cells or” for “viability.”, “compounds” for “compound”
To assess the effect of mutual prodrugs on cell growth, PC-3 and MDA-MB-231 cells were treated with mutual prodrugs for […], respectively. […] In this cell line, the order of potency was VNLG/66>VNLG/114>VNLG/122>VNLG/124>VNLG/60. The efficacies of mutual prodrugs were compared to the efficacies of ATRA or HDIs alone in PC-3 prostate cancer cells. […] The reason(s) for these differential potencies of the different mutual prodrugs in PC-3 cells are unknown at this time, but may be idiosyncratic, possibly due to extents and efficiencies of cell membrane penetration and/or intracellular cleavage of mutual prodrugs.

MCF-7 = experiment: MTT cell growth inhibition, MCF-7 cells; format: cell-based
Protocol: as §1, §3
(§4) Given the potency of most of the mutual prodrugs of the present invention, in MDA-MB-231 and PC-3 cell lines, their effects on the growth of some known drug-resistant breast cancer cell lines, including MCF-7TAMR, MCF-7Hox-B7, LTLC and LTLT-Ca was tested compared to parental MCF-7 cells.

MCF-7HOX-B7 = experiment: MTT cell growth inhibition, MCF-7HOX-B7 cells; format: cell-based
Protocol: as §1, §3, §4

MCF-7TAMR = experiment: MTT cell growth inhibition, MCF-7TAMR cells; format: cell-based
Protocol: as §1, §3, §4

LTLT-Ca = experiment: MTT cell growth inhibition, LTLT-Ca cells; format: cell-based
Protocol: as §1
(§5) PC-3 cells were seeded in 24 well plates (Corning Costar) at a density of 2×10^4 cells per well per 1 mL of medium. Cells were allowed to adhere to the plate for 24 hours and then treated with different concentrations of ATRA, HDIs or mutual prodrugs dissolved in 10% DMSO, 90% ethanol. Cells were treated for five days with renewal of prodrug and media on day 3. […] The absorbance at 560 nm was measured by spectrophotometry (Victor 1420 multilabel counted, Wallac). […] GI50 values were calculated by nonlinear regression analysis using GraphPad Prism software. […]

LTLC = experiment: MTT cell growth inhibition, LTLC cells; format: cell-based
Protocol: as §1, §5

[3] = pH 7.2
Protocol: Plasma was obtained by centrifugation of blood samples (obtained from mice) containing 0.25% heparin. 0.8 ml of plasma was mixed with 0.2 ml of phosphate buffer (pH 7.2). Incubations were performed at 37° C.+/−0.5° C. using shaking water bath. The reaction was initiated by adding 25 μl of stock solution of mutual prodrugs (1 mg/ml) to preheated plasma and aliquots were taken at different time interval and extracted using solid phase extraction with C18 Bond Elut columns. HPLC analysis of the extracted samples were performed using a multi-linear gradient solvent system, (i) 20 mM aq. CH3COONH4 buffer/CH3OH(50:50), (100% to 0%) and (ii) CH3OH(100%), (0% to 100%) at a flow rate of 0.8 ml/min.
Plasma was obtained by centrifugation of blood samples containing 0.25% heparin. 0.8 ml of plasma was mixed with 0.2 ml of phosphate buffer (pH 7.2). Incubations were performed at 37° C.±0.5° C. using shaking water bath. […]
HPLC methods were developed to briefly study the cleavage of compounds VNLG/60, VNLG/66, VNLG/114,VNLG/122 and VNLG/124, in fresh mouse plasma. […] Furthermore, the stability of mutual prodrugs was studied in 0.02 M phosphate buffer (pH=7.2) and also in 80% human serum (obtained from Sigma) containing 20% 0.02 M phosphate buffer as previously described.^41 The mutual prodrugs were each incubated at 37° C. for 24 h, extracted and analyzed by HPLC.

[4] = Homo sapiens, MDA-MB-231, dose-response curves, at least three independent experiments, SEM < 10%, read-out: GI50 Values, MDA-MB-231 breast cancer cells
[5] = Homo sapiens, PC-3, dose-response curves, at least three independent experiments, SEM < 10%, read-out: GI50 Values, PC-3 prostate cancer cells
[6] = Homo sapiens, MDA-MB-231, read-out: GI50, MDA-MB-231 cells
[7] = MDA-MB-231, dose-response curves, at least three independent experiments, SEM < 10%, read-out: GI50 Values, MDA-MB-231 breast cancer cells
[8] = MDA-MB-231, read-out: GI50, MDA-MB-231 cells
[9] = PC-3, dose-response curves, at least three independent experiments, SEM < 10%, read-out: GI50 Values, PC-3 prostate cancer cells

GI50 [1, 4]: 10.8 µM
GI50 [2, 5]: 7.6 µM
Compound: CC1=C(/C=C/C(C)=C/C=C/C(C)=C/C(=O)O)C(C)(C)CCC1 [ATRA, all-trans retinoic acid, reference compound]

GI50 [1, 4]: 0.17 µM
GI50 [2, 5]: 0.29 µM
Compound: CC(=O)Nc1ccc(C(=O)Nc2ccccc2N)cc1 [CI-994, N-(2′-aminophenyl)-4-acetylaminobenzamide, reference compound]

GI50 [1, 4]: 0.009 µM
GI50 ([2]; Homo sapiens, PC-3, read-out: GI50, PC-3 cells): 0.19 µM
GI50 [2, 5]: 0.19 µM
Compound: Nc1ccccc1NC(=O)c1ccc(CNC(=O)OCc2cccnc2)cc1 [MS-275, N-(2-aminophenyl)4-[N-(pyridine-3-yl-methoxy-carbonyl)aminomethyl]benzamide, reference compound]

Compound: CCCC(=O)[O-].[Na+] [Sodium butyrate (BA), Sodium butyrate, reference compound]
GI50 [1, 4]: > 1000 µM
GI50 ([2]; Homo sapiens, PC-3, read-out: GI50 Values, PC-3 prostate cancer cells): 72.4 µM

GI50 [1, 6]: 0.63 µM
GI50 ([1]; Homo sapiens, MDA-MB-231, MTT assay, FIG. 1C, read-out: GI50, MDA-MB-231 (FIG. 1C)): 4.3 µM
GI50 [1, 4]: 0.63 µM
GI50 [2, 5]: 4.27 µM
GI50 (MCF-7; Homo sapiens, MCF7): 0.25 µM
GI50 (MCF-7HOX-B7): 1.2 µM
GI50 (MCF-7TAMR): 0.17 µM
Compound: CC(=O)Nc1ccc(C(=O)Nc2ccccc2NC(=O)CNC(=O)OCOC(=O)/C=C(C)/C=C/C=C(C)/C=C/C2=C(C)CCCC2(C)C)cc1 [VNLG/60, (N-{[N-(2-{[4-(Acetylamino)phenyl]carbonylamino}phenyl)carbamoyl]methyl}carbamoyloxy)methyl(2E,4E,6E,8E)-3,7-dimethyl-9-(2,6,6-trimethylcyclohex-1-enyl)nona-2,4,6,8-tetraenoate]
growth inhibitory effect versus parent drugs alone or in combination ([1]; MDA-MB-231): synergistic growth inhibitory effect

GI50 [1, 4]: 0.17 µM
GI50 [2, 5]: 0.18 µM
GI50 (MCF-7; Homo sapiens, MCF7): 0.06 µM
GI50 (MCF-7HOX-B7): 0.72 µM
GI50 (MCF-7TAMR): 0.21 µM
melting point: 128 to 130 °C
Compound: CC1=C(/C=C/C(C)=C/C=C/C(C)=C/C(=O)Oc2ccc(COC(=O)Nc3ccccc3NC(=O)c3ccc(NCC(=O)OCc4cccnc4)cc3)cc2)C(C)(C)CCC1 [VNLG/114, 4-{[N-(2-{[4-({[(3-Pyridylmethyl)oxycarbonyl]methyl}amino)phenyl]carbonylamino}phenyl)carbamoyloxy]methyl}phenyl(2E,4E,6E,8E)-3,7-dimethyl-9-(2,6,6-trimethylcyclohex-1-enyl)nona-2,4,6,8-tetraenoate]
growth inhibitory effect versus parent drugs alone or in combination ([1]; MDA-MB-231): synergistic growth inhibitory effect; also recorded: significant increase

GI50 fold difference to VNLG/60 ([1]; MDA-MB-231): 31.5 fold
GI50 fold lower than ATRA ([1]; MDA-MB-231): 543 fold
GI50 fold lower than CI-994 ([1]; MDA-MB-231): 8.5 fold
GI50 [1, 7]: 0.02 µM
GI50 [1, 8]: 0.02 µM
GI50 [2, 9]: 0.87 µM
GI50 (MCF-7; MCF-7): 0.52 µM
GI50 (MCF-7HOX-B7; MCF-7HOX-B7): 8.13 µM
GI50 (MCF-7TAMR; MCF-7TAMR): 0.08 µM
Compound: CC(=O)Nc1ccc(C(=O)Nc2ccccc2NC(=O)OCc2ccc(OC(=O)/C=C(C)/C=C/C=C(C)/C=C/C3=C(C)CCCC3(C)C)cc2)cc1 [VNLG/122, 4-{[N-2-{[4-(Acetylamino)phenyl]carbonylamino}phenyl0carbamoyloxy]methyl}phenyl(2E,4E,6E,8E) -3,7-dimethyl-9-(2,6,6-trimethylcyclohex-1-enyl)nona-2,4,6,8-tetraenoate]

GI50 [1, 6]: 0.01 µM
GI50 ([1]; Homo sapiens, MDA-MB-231, head-to-head with 3, FIG. 7, read-out: GI50 for inhibition of growth of MDA-MB-231 cells, head-to-head (FIG. 7)): 0.048 µM
GI50 [1, 4]: 0.01 µM
GI50 fold lower than ATRA ([1]; MDA-MB-231): 1085 fold
GI50 fold lower than BA ([1]; MDA-MB-231): over 100,000 fold
GI50 fold lower than that of 3 ([1]; MDA-MB-231, FIG. 7): 25 fold
GI50 ([2]; Homo sapiens, PC-3, FIG. 9, combination = increasing ATRA with BA 10.0 μM, read-out: GI50, PC-3 dose-response curves (FIG. 9)): 1.7 µM
GI50 [2, 5]: 1.02 µM
GI50 fold lower than the combination of ATRA and BA ([2]; PC-3, FIG. 9): 15 fold
Compound: CCCC(=O)OCc1ccc(OC(=O)/C=C(C)/C=C/C=C(C)/C=C/C2=C(C)CCCC2(C)C)cc1 [VNLG/124, 4-(Butanoyloxymethyl)phenyl(2E,4E,6E,8E)-3,7-dimethyl-9-(2,6,6-trimethylcyclohex-1-enyl)nona-2,4,6,8-tetraenoate]
growth inhibitory effect versus parent drugs alone or in combination ([1]; MDA-MB-231): significant increase
inhibition at 20 µM ([2]; Homo sapiens, PC-3, 20 μM, FIG. 8): ~80%
growth inhibitory effect versus parent drugs alone or in combination ([2]; PC3): significant increase

GI50 ([1]; MDA-MB-231, head-to-head with VNLG/124, FIG. 7, read-out: GI50 for inhibition of growth of MDA-MB-231 cells, head-to-head (FIG. 7)): 1.18 µM
Compound: CCCC(=O)OCOC(=O)C=C(C)C=CC=C(C)C=CC1=C(C)CCCC1(C)C [compound 3, retinoyloxymethyl butyrate, reference compound]

GI50 [2, 5]: 1.02 µM
GI50 fold lower than that of butyric acid (BA) ([2]; PC-3): 74 fold
Compound: CC1=C(/C=C/C(C)=C/C=C/C(C)=C/C(=O)Oc2ccc(CO)cc2)C(C)(C)CCC1 [compound 16, 4-(Hydroxymethyl)phenyl(2E,4E,6E,8E)-3,7-dimethyl-9-(2,6,6-trimethylcyclohex-1-enyl)nona-2,4,6,8-tetraenoate]

GI50 [1, 7]: 0.94 µM
GI50 [1, 8]: 0.94 µM
GI50 fold lower than 2 (MS-275) ([2]; PC-3): 4.75 fold
GI50 [2, 9]: 0.04 µM
GI50 ([2]; PC-3, read-out: GI50, PC-3 cells): 0.04 µM
GI50 (MCF-7; MCF-7): 0.15 µM
GI50 (MCF-7HOX-B7; MCF-7HOX-B7): 0.006 µM
GI50 (MCF-7TAMR; MCF-7TAMR): 0.02 µM
hydrolysis of mutual prodrug in plasma [3]: no mutual Prodrug after one hour
Compound: {N-[N-{2-[4-{[3-Pyridylmethoxy)carbonyamino]methyl}phenyl)carbonylamino]phenyl}carbamoyl carbamoyloxy}methyl(2E,4E,6E,8E)-3,7-dimethyl-9-(2,6,6-trimethylcyclohex-1-enyl)nona-2,4,6,8-tetraenoate [VNLG/66]
GI50 (LTLT-Ca): 0.65 µM
GI50 (LTLC): 0.02 µM

— patent US20100184812A1, “MUTUAL PRODRUGS AND METHODS TO TREAT CANCER” (UNIVERSITY OF MARYLAND, BALTIMORE, priority 2007, published 2010)
